# Reference: PMC12274840 (The Journal of Biological Chemistry, 2025)
# Read-outs that look alike come from different tables or passages of the source.
# How the values were obtained:
# [1] = test system: E. coli KA797 cells carrying BlaC position 105 library; format: cell-based, Escherichia coli; conditions: for Fi AVG (average fitness): relative to WT Ile; for Fi AVG (average fitness) / Fi MEM AVG: average of replicates
# [2] = test system: E. coli KA797 cells carrying pUK21 with BlaC WT (Tat); assay: microbe, parasite or virus in culture; format: cell-based; conditions: Escherichia coli, antibiotic alone
# [3] = test system: E. coli KA797 cells carrying pUK21 with KPC-2 (Tat); assay: microbe, parasite or virus in culture; format: cell-based; conditions: Escherichia coli, antibiotic alone
# [4] = test system: E. coli KA797 cells carrying CTX-M-14 position 105 library; format: cell-based; conditions: CTX-M-14 WT (Tyr 105)
smiles,measurement,setting,value
C[C@@H](O)[C@H]1C(=O)N2C(C(=O)O)=C(S[C@@H]3CN[C@H](C(=O)N(C)C)C3)[C@H](C)[C@H]12 [meropenem],Fi MEM 2,"[1]; AA 105 Gln, meropenem, replicate 2",-1.909
same,Fi AVG (average fitness),[1]; AA 105 Glu (BlaC I105E),-0.058
same,Significance (Fi MEM AVG),"[1]; AA 105 Glu, meropenem",-
same,Fi MEM AVG,"[1]; AA 105 Glu, meropenem",-1.296
same,Fi MEM 1,"[1]; AA 105 Glu, meropenem, replicate 1",-1.915
same,Fi MEM 2,"[1]; AA 105 Glu, meropenem, replicate 2",0.069
same,Fi MEM 3,"[1]; AA 105 Glu, meropenem, replicate 3",-2.043
same,Fi AVG (average fitness),[1]; AA 105 Gly (BlaC I105G),-0.019
same,Significance (Fi MEM AVG),"[1]; AA 105 Gly, meropenem",-
same,Fi MEM AVG,"[1]; AA 105 Gly, meropenem",-1.447
same,Fi MEM 1,"[1]; AA 105 Gly, meropenem, replicate 1",-0.905
same,Fi MEM 2,"[1]; AA 105 Gly, meropenem, replicate 2",-2.832
same,Fi MEM 3,"[1]; AA 105 Gly, meropenem, replicate 3",-0.603
same,Fi MEM AVG,"[1]; AA 105 His, meropenem",0.129
same,Fi MEM 1,"[1]; AA 105 His, meropenem, replicate 1",1.220
same,Fi MEM 2,"[1]; AA 105 His, meropenem, replicate 2",-0.828
same,Fi MEM 3,"[1]; AA 105 His, meropenem, replicate 3",-0.00649
same,Fi MEM AVG,"[1]; AA 105 Ile (WT), meropenem",0.000
same,Fi MEM 1,"[1]; AA 105 Ile (WT), meropenem, replicate 1",0.000
same,Fi MEM 2,"[1]; AA 105 Ile (WT), meropenem, replicate 2",0.000
same,Fi MEM 3,"[1]; AA 105 Ile (WT), meropenem, replicate 3",0.000
same,Significance (Fi MEM AVG),"[1]; AA 105 Leu, meropenem",-
same,Fi MEM AVG,"[1]; AA 105 Leu, meropenem",-1.047
same,Fi MEM 1,"[1]; AA 105 Leu, meropenem, replicate 1",-0.470
same,Fi MEM 2,"[1]; AA 105 Leu, meropenem, replicate 2",-1.669
same,Fi MEM 3,"[1]; AA 105 Leu, meropenem, replicate 3",-1.001
same,Significance (Fi MEM AVG),"[1]; AA 105 Lys, meropenem",-
same,Fi MEM AVG,"[1]; AA 105 Lys, meropenem",-2.317
same,Fi MEM 1,"[1]; AA 105 Lys, meropenem, replicate 1",-1.936
same,Fi MEM 2,"[1]; AA 105 Lys, meropenem, replicate 2",-2.755
same,Fi MEM 3,"[1]; AA 105 Lys, meropenem, replicate 3",-2.261
same,Fi MEM AVG,"[1]; AA 105 Met, meropenem",-0.579
same,Fi MEM 1,"[1]; AA 105 Met, meropenem, replicate 1",-0.023
same,Fi MEM 2,"[1]; AA 105 Met, meropenem, replicate 2",-0.087
same,Fi MEM 3,"[1]; AA 105 Met, meropenem, replicate 3",-1.628
same,Significance (Fi MEM AVG),"[1]; AA 105 Phe, meropenem",-
same,Fi MEM AVG,"[1]; AA 105 Phe, meropenem",-1.123
same,Fi MEM 1,"[1]; AA 105 Phe, meropenem, replicate 1",-0.896
same,Fi MEM 2,"[1]; AA 105 Phe, meropenem, replicate 2",-1.005
same,Fi MEM 3,"[1]; AA 105 Phe, meropenem, replicate 3",-1.468
same,Fi AVG (average fitness),[1]; AA 105 Pro (BlaC I105P),-0.044
same,Significance (Fi MEM AVG),"[1]; AA 105 Pro, meropenem",-
same,Fi MEM AVG,"[1]; AA 105 Pro, meropenem",-1.653
same,Fi MEM 1,"[1]; AA 105 Pro, meropenem, replicate 1",-2.435
same,Fi MEM 2,"[1]; AA 105 Pro, meropenem, replicate 2",0.050
same,Fi MEM 3,"[1]; AA 105 Pro, meropenem, replicate 3",-2.575
same,Significance (Fi MEM AVG),"[1]; AA 105 Ser, meropenem",-
same,Fi MEM AVG,"[1]; AA 105 Ser, meropenem",-1.018
same,Fi MEM 1,"[1]; AA 105 Ser, meropenem, replicate 1",-0.084
same,Fi MEM 2,"[1]; AA 105 Ser, meropenem, replicate 2",-1.824
same,Fi MEM 3,"[1]; AA 105 Ser, meropenem, replicate 3",-1.144
same,Fi AVG (average fitness),[1]; AA 105 Thr (BlaC I105T),-0.015
same,Significance (Fi MEM AVG),"[1]; AA 105 Thr, meropenem",-
same,Fi MEM AVG,"[1]; AA 105 Thr, meropenem",-1.775
same,Fi MEM 1,"[1]; AA 105 Thr, meropenem, replicate 1",-1.838
same,Fi MEM 2,"[1]; AA 105 Thr, meropenem, replicate 2",-2.332
same,Fi MEM 3,"[1]; AA 105 Thr, meropenem, replicate 3",-1.155
same,Fi MEM AVG,"[1]; AA 105 Trp, meropenem",-0.487
same,Fi MEM 1,"[1]; AA 105 Trp, meropenem, replicate 1",0.050
same,Fi MEM 2,"[1]; AA 105 Trp, meropenem, replicate 2",-1.403
same,Fi MEM 3,"[1]; AA 105 Trp, meropenem, replicate 3",-0.109
same,Fi AVG (average fitness),[1]; AA 105 Tyr (BlaC I105Y),-0.070
same,Fi MEM AVG,"[1]; AA 105 Tyr, meropenem",-0.204
same,Fi MEM 1,"[1]; AA 105 Tyr, meropenem, replicate 1",0.312
same,Fi MEM 2,"[1]; AA 105 Tyr, meropenem, replicate 2",-1.109
same,Fi MEM 3,"[1]; AA 105 Tyr, meropenem, replicate 3",0.185
same,Fi AVG (average fitness),[1]; AA 105 Val (BlaC I105V),-0.016
same,Fi MEM AVG,"[1]; AA 105 Val, meropenem",-0.855
same,Fi MEM 1,"[1]; AA 105 Val, meropenem, replicate 1",0.059
same,Fi MEM 2,"[1]; AA 105 Val, meropenem, replicate 2",-2.574
same,Fi MEM 3,"[1]; AA 105 Val, meropenem, replicate 3",-0.049
same,WT abs Fi 1,"[1]; WT (Ile 105) absolute fitness, meropenem, replicate 1",0.125
same,WT abs Fi 2,"[1]; WT (Ile 105) absolute fitness, meropenem, replicate 2",0.070
same,WT abs Fi 3,"[1]; WT (Ile 105) absolute fitness, meropenem, replicate 3",0.109
same,MIC,[2],0.1 µg/mL
same,MIC,[3],0.4 µg/mL
same,"WT abs Fi 1 (absolute fitness of wild type, Replicate 1)",[4],-0.645
same,"WT abs Fi 2 (absolute fitness of wild type, Replicate 2)",[4],-0.807
